# Results: publication PMC9120017, “Inhibition mechanism of the chloride channel TMEM16A by the pore blocker 1PBC” (Nature Communications, 2022)
# Read-outs that look alike come from different tables or passages of the source.
# Target: T1, wild-type mouse TMEM16A (Mus musculus, UniProt Q8BHY3)
# T1 construct: expressed in transfected cells; host or cells: HEK293T
# T1 sequence (Q8BHY3 1-960): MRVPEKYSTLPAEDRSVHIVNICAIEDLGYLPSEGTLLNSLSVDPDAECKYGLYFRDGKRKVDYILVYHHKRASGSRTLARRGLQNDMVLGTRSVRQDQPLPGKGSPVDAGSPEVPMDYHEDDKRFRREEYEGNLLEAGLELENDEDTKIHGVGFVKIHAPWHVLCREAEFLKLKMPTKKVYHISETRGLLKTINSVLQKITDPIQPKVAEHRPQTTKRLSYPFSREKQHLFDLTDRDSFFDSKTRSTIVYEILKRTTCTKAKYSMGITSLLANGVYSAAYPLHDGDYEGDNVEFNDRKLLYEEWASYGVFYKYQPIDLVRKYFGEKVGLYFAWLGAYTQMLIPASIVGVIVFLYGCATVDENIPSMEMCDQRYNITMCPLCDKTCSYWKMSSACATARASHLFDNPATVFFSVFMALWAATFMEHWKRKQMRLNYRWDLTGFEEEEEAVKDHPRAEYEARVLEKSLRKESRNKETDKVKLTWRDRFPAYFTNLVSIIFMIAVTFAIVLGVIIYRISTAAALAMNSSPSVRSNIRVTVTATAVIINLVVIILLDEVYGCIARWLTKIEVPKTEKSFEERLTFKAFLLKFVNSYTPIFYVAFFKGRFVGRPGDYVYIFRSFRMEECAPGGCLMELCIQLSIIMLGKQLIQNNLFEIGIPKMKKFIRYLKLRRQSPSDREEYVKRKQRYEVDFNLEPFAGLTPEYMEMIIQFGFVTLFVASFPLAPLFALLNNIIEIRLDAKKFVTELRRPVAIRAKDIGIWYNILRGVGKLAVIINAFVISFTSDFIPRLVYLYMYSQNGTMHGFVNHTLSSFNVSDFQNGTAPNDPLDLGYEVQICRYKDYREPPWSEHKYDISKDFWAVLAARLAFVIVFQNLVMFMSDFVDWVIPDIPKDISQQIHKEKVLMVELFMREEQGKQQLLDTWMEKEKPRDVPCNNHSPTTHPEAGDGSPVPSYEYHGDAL
# Test: Inside-out patch recording of 1PBC block, wild-type TMEM16A
# Format: cell-based
# Method: HEK293T cells (ATCC CRL-1573) were maintained in Dulbecco’s modified Eagle’s medium (DMEM; Sigma-Aldrich) supplemented with 10 U ml^−1 penicillin, 0.1 mg ml^−1 streptomycin (Sigma-Aldrich), 2 mM L-glutamine (Sigma-Aldrich), and 10% FBS (Sigma-Aldrich) in a humidified atmosphere containing 5% CO2 at 37 °C. HEK293S GnTI^− cells (ATCC CRL-3022) were maintained in HyClone HyCell TransFx-H medium (GE Healthcare) supplemented with 10 U ml^−1 penicillin, 0.1 mg ml^−1 streptomycin, 4 mM L-glutamine, 0.15% poloxamer 188 (Sigma-Aldrich), and 1% FBS in an atmosphere containing 5% CO2 at 185 rpm at 37 °C. The ac splice variant of mouse TMEM16A (UniProt ID: Q8BHY3), mouse TMEM16B (UniProt ID: Q8CFW1), or mouse TMEM16F (UniProt ID: Q6P9J9) bearing a 3C cleavage site, a Venus YFP, a Myc tag, and a Streptavidin-binding peptide (SBP) downstream of the open reading frame in a modified pcDNA3.1 vector (Invitrogen) were used as described previously[21],[31]. Mutations were introduced using a modified QuikChange method[58] and were verified by sequencing.
# HEK293T cells were transfected with 3–4 μg DNA per 6 cm Petri dish using the calcium phosphate co-precipitation method and were used within 24–96 h after transfection. Recordings were performed on inside-out patches excised from HEK293T cells expressing the construct of interest. Patch pipettes were pulled from borosilicate glass capillaries (O.D. 1.5 mm, I.D. 0.86 mm, Sutter Instrument) and were fire-polished with a microforge (Narishige) before use. Pipette resistance was typically 3–8 MΩ when filled with the recording solutions detailed below. Seal resistance was typically 4 GΩ or higher. Voltage-clamp recordings were made using Axopatch 200B, Digidata 1550, and Clampex 10.7 (Molecular Devices). Analog signals were filtered with the in-built 4-pole Bessel filter at 10 kHz and were digitized at 20 kHz. Solution exchange was achieved using a gravity-fed system through a theta glass pipette mounted on an ultra-fast piezo-driven stepper (Siskiyou). […] All recordings were performed at 20 °C.
# A symmetrical ionic condition was used throughout. Stock solution with Ca^2+-EGTA contained 150 mM NaCl, 5.99 mM Ca(OH)2, 5 mM EGTA, and 10 mM HEPES at pH 7.40. Stock solution with EGTA contained 150 mM NaCl, 5 mM EGTA, and 10 mM HEPES at pH 7.40. Free Ca^2+ concentrations were adjusted by mixing the stock solutions at the required ratios calculated using the WEBMAXC program (http://web.stanford.edu/~cpatton/webmaxcS.htm). Patch pipettes were filled with the stock solution with Ca^2+-EGTA, which has a free Ca^2+ concentration of 1 mM. 1PBC (ChemBridge) stock was reconstituted in anhydrous DMSO (Sigma-Aldrich) at 100 mM and stored at −20 °C. Working solutions with 1PBC were prepared by serial dilution. Unless otherwise stated, experiments were performed at a saturating Ca^2+ concentration as shown in Supplementary Table 1 and the primary data were corrected for current rundown as described previously[21],[25].
# Concentration-response relations, obtained from the ratio of the I-V plots before and after the application of the blocker, were fitted to the Hill equation,1 I/Imax=1/1+IC50/[blocker]^h where I/Imax is the normalized current responses, IC50 defines the concentration at which inhibition is at its half-maximum, and h is the Hill coefficient.
compound,measurement,setting,value
N#Cc1c(C(F)(F)F)cc(O)n2c1nc1ccccc12 [1PBC],Steady-state current (normalized),"10 µM 1PBC, -60 mV, 2 µM Ca2+",-0.2628
same,remaining activity at 10 µM,"10 µM 1PBC, -60 mV, 2 µM Ca2+, read-out: I/Imax",45.4%
same,Steady-state current (normalized),"10 µM 1PBC, -80 mV, 2 µM Ca2+",-0.388
same,remaining activity at 10 µM,"10 µM 1PBC, -80 mV, 2 µM Ca2+, read-out: I/Imax",50.6%
same,Steady-state current (normalized),"10 µM 1PBC, -100 mV, 2 µM Ca2+",-0.5211
same,remaining activity at 10 µM,"10 µM 1PBC, -100 mV, 2 µM Ca2+, read-out: I/Imax",54.8%
same,Steady-state current (normalized),"10 µM 1PBC, -120 mV, 2 µM Ca2+",-0.6616
same,remaining activity at 10 µM,"10 µM 1PBC, -120 mV, 2 µM Ca2+, read-out: I/Imax",59.1%
same,Steady-state current (normalized),"10 µM 1PBC, -140 mV, 2 µM Ca2+",-0.7984
same,remaining activity at 10 µM,"10 µM 1PBC, -140 mV, 2 µM Ca2+, read-out: I/Imax",62.2%
same,Steady-state current (normalized),"30 µM 1PBC, 0 mV, 2 µM Ca2+",0.0002811
same,remaining activity at 30 µM,"30 µM 1PBC, 0 mV, 2 µM Ca2+, read-out: I/Imax",11.5%
same,I/Imax scaled to open probability,"30 µM 1PBC, 400 nM Ca2+, 80 mV",0.04177
same,I/Imax scaled to open probability,"30 µM 1PBC, 800 nM Ca2+, 80 mV",0.04061
same,I/Imax scaled to open probability,"30 µM 1PBC, 2 µM Ca2+, 80 mV",0.05533
same,Steady-state current (normalized),"30 µM 1PBC, 20 mV, 2 µM Ca2+",0.01874
same,remaining activity at 30 µM,"30 µM 1PBC, 20 mV, 2 µM Ca2+, read-out: I/Imax",9.63%
same,Steady-state current (normalized),"30 µM 1PBC, 40 mV, 2 µM Ca2+",0.03065
same,remaining activity at 30 µM,"30 µM 1PBC, 40 mV, 2 µM Ca2+, read-out: I/Imax",8.13%
same,Steady-state current (normalized),"30 µM 1PBC, 60 mV, 2 µM Ca2+",0.03882
same,remaining activity at 30 µM,"30 µM 1PBC, 60 mV, 2 µM Ca2+, read-out: I/Imax",7.03%
same,Steady-state current (normalized),"30 µM 1PBC, 80 mV, 2 µM Ca2+",0.04513
same,remaining activity at 30 µM,"30 µM 1PBC, 80 mV, 2 µM Ca2+, read-out: I/Imax",6.38%
same,Steady-state current (normalized),"30 µM 1PBC, 100 mV, 2 µM Ca2+",0.0498
same,remaining activity at 30 µM,"30 µM 1PBC, 100 mV, 2 µM Ca2+, read-out: I/Imax",5.86%
same,Steady-state current (normalized),"30 µM 1PBC, 120 mV, 2 µM Ca2+",0.05715
same,remaining activity at 30 µM,"30 µM 1PBC, 120 mV, 2 µM Ca2+, read-out: I/Imax",5.87%
same,Steady-state current (normalized),"30 µM 1PBC, 140 mV, 2 µM Ca2+",0.0661
same,remaining activity at 30 µM,"30 µM 1PBC, 140 mV, 2 µM Ca2+, read-out: I/Imax",6.08%
same,Steady-state current (normalized),"30 µM 1PBC, -20 mV, 2 µM Ca2+",-0.02579
same,remaining activity at 30 µM,"30 µM 1PBC, -20 mV, 2 µM Ca2+, read-out: I/Imax",13.4%
same,Steady-state current (normalized),"30 µM 1PBC, -40 mV, 2 µM Ca2+",-0.06545
same,remaining activity at 30 µM,"30 µM 1PBC, -40 mV, 2 µM Ca2+, read-out: I/Imax",16.9%
same,Steady-state current (normalized),"30 µM 1PBC, -60 mV, 2 µM Ca2+",-0.1171
same,remaining activity at 30 µM,"30 µM 1PBC, -60 mV, 2 µM Ca2+, read-out: I/Imax",20.2%
same,Steady-state current (normalized),"30 µM 1PBC, -80 mV, 2 µM Ca2+",-0.1843
same,remaining activity at 30 µM,"30 µM 1PBC, -80 mV, 2 µM Ca2+, read-out: I/Imax",24%
same,Steady-state current (normalized),"30 µM 1PBC, -100 mV, 2 µM Ca2+",-0.264
same,remaining activity at 30 µM,"30 µM 1PBC, -100 mV, 2 µM Ca2+, read-out: I/Imax",27.8%
same,Steady-state current (normalized),"30 µM 1PBC, -120 mV, 2 µM Ca2+",-0.3545
same,remaining activity at 30 µM,"30 µM 1PBC, -120 mV, 2 µM Ca2+, read-out: I/Imax",31.7%
same,Steady-state current (normalized),"30 µM 1PBC, -140 mV, 2 µM Ca2+",-0.4476
same,remaining activity at 30 µM,"30 µM 1PBC, -140 mV, 2 µM Ca2+, read-out: I/Imax",34.8%
same,Steady-state current (normalized),"100 µM 1PBC, 0 mV, 2 µM Ca2+",0.0001085
same,remaining activity at 100 µM,"100 µM 1PBC, 0 mV, 2 µM Ca2+, read-out: I/Imax",4.44%
same,I/Imax scaled to open probability,"100 µM 1PBC, 400 nM Ca2+, 80 mV",0.01539
same,I/Imax scaled to open probability,"100 µM 1PBC, 800 nM Ca2+, 80 mV",0.01603
